Consider 104 compounds from PubChem BioAssay AID1996.

Structures are written as SMILES. Converted amounts (≈) assume the structure as drawn.

For the data set the following is noted: buffer; pH 7.4; 200.0 µM.
The solubility (kinetic) is the concentration staying in solution when a stock, usually in DMSO, is diluted into the medium. On to `O=C(CSc1nc2ccc(Cl)cc2[nH]1)NC1CCCC1`, for which the solubility (kinetic) was 9.3 µg/mL (≈ 30 µM).

Turning to `N#C/C(=C\c1ccc(F)cc1F)S(=O)(=O)c1ccccn1`, the kinetic solubility is 42.4 µg/mL (≈ 138 µM). The result for `Cc1ccc(NC(=O)COC(=O)C2(CC(=O)NC(C)(C)C)CCCC2)cc1C` reads 2.5 µg/mL (≈ 6.43 µM); that for `COc1ccc(/C=C/c2ccc3cccc(O)c3n2)cc1Br`, below 0.8 µg/mL.

For the compound `O=C(Nc1ccc(Cl)cc1)C1C2CCCCC21` (centres undefined), the kinetic solubility was below 0.5 µg/mL. As to `O=C(COC(=O)c1c[nH]c(=O)[nH]c1=O)Nc1ccccc1F`, the kinetic solubility is above 46.1 µg/mL. To `O=C(CC1SC(N2CCOCC2)=NC1=O)Nc1cccc(C(F)(F)F)c1` (centres undefined) belongs 27.8 µg/mL (≈ 71.8 µM). `CC(C)(C)c1ccc(OCCCn2ccnc2)cc1`: the kinetic solubility came out at 25.5 µg/mL (≈ 98.7 µM). The solubility kinetic values of the last two compounds are within 1.5-fold of each other. Turning to `CC(=O)NCCc1nc2ccccc2n1CCOc1ccccc1`, the kinetic solubility is above 48.5 µg/mL. With `Cn1c(SCc2cccc(C#N)c2)nc2ccccc2c1=O`, the solubility (kinetic) was 0.4 µg/mL (≈ 1.3 µM).

Compound `O=C1CNC(=S)N1c1nc2ccccc2s1` came in with a solubility (kinetic) of 31.6 µg/mL (≈ 127 µM).

The compound `CC(NC(=O)c1ccco1)C(=O)OCc1cccc(C(F)(F)F)c1` (centres undefined) came in with a solubility (kinetic) above 51.2 µg/mL.

Compound `Cc1nc2c3c(sc2c(=O)[nH]1)NC(=O)CC3c1ccccc1Cl` (centres undefined) showed a solubility (kinetic) of 1.5 µg/mL (≈ 4.34 µM). `COc1ccc(-n2cnc3ccccc3c2=O)c([N+](=O)[O-])c1`: the kinetic solubility was above 44.6 µg/mL. The compound `N#CCC(=O)Nc1ccc(C(=O)NCc2ccccn2)cc1` yielded a solubility (kinetic) above 44.1 µg/mL. Take `O=C(NCCCCNC(=O)c1ccccn1)c1ccccn1`: the kinetic solubility was above 44.8 µg/mL.

`COc1ccc(Cl)cc1NS(=O)(=O)c1cn(C)nc1C` had a solubility (kinetic) above 47.4 µg/mL. To `O=C1N=C(N2CCOCC2)S/C1=C/c1cc2c(cc1[N+](=O)[O-])OCO2` belongs 44.8 µg/mL (≈ 123 µM); to `Cc1ccc(CN2CCCC(C(=O)c3ccc4c(c3)OCO4)C2)cc1C` (centres undefined), 25.4 µg/mL (≈ 72.3 µM). Take `Cl.Nc1nc(N2CCN(c3ccccn3)CC2)nc2ccccc12`: the kinetic solubility is 54.8 µg/mL. The result for `O=C(COC(=O)CCC(=O)c1cccs1)NC1CC1` reads above 42.2 µg/mL; that for `O=C(Nc1cccnc1)c1cc(-c2ccc(Cl)cc2)on1`, 0.3 µg/mL (≈ 1 µM).

On to `O=C(NCc1ccccc1)c1nc2ccccc2s1`, for which the kinetic solubility was 17.4 µg/mL (≈ 64.8 µM). Against the preceding compound, the solubility kinetic is about 58-fold higher. In turn, `NCCc1c[nH]c2ccc(OCc3ccccc3)cc12` returned a solubility (kinetic) of 7.8 µg/mL (≈ 29.3 µM). Compound `O=C(Nc1ccc(F)c(Cl)c1)c1nsc(Cl)c1Cl` had a solubility (kinetic) of 0.7 µg/mL (≈ 2.15 µM). The compound `Cc1ccc([N+](=O)[O-])cc1NC(=O)c1ccccc1` gave a kinetic solubility of 8.5 µg/mL (≈ 33.2 µM). This solubility kinetic lies about 12-fold higher than the previous one. `Cl.N=C(N)SCP(=O)(c1ccccc1)c1ccccc1` came in with a solubility (kinetic) above 49 µg/mL. `Cc1ccc(NC(=O)c2cccnc2)cc1C` registered a kinetic solubility above 33.9 µg/mL.

As for `Cc1ccccc1-c1nnc(SCC(=O)Nc2cccnc2Cl)o1`, the kinetic solubility is above 54.1 µg/mL.

`Nc1nc(CCl)nc(Nc2ccc3ccccc3c2)n1` registered a solubility (kinetic) of 29.3 µg/mL (≈ 103 µM). On to `Cc1cc(C)c(C(=O)Nc2ccc(C)c(C)c2)c(CC(C)(C)C(=O)O)c1`, for which the kinetic solubility is above 53 µg/mL. The result for `CCCC(=O)c1cc2c(cc1NC(=O)c1ccccc1F)OCCO2` reads below 0.7 µg/mL. To `COCCN(C(=S)Nc1ccccc1C)C(C)c1ccco1` (centres undefined) belongs 45.7 µg/mL (≈ 144 µM); to `COc1ccc(Cl)cc1NC(=S)N1CCCCCC1`, 42.7 µg/mL (≈ 143 µM). The result for `Cc1cccc(OCC(=O)NCCNC(=O)c2ccccn2)c1` reads above 47 µg/mL; that for `O=C(Nc1cc(Cl)ccc1F)C1=COCCO1`, above 38.6 µg/mL; that for `COc1ccc(-n2c(CNCCc3ccc(C)cc3)nc3ccccc3c2=O)cc1`, 45.2 µg/mL (≈ 113 µM).

`COc1ccccc1N1CCN(Cc2cnc(-c3ccccc3)[nH]2)CC1` registered a kinetic solubility of 15.1 µg/mL (≈ 43.3 µM). As to `CCN(CC)C(=O)c1cccc2c1-c1ccccc1C2=O`, the solubility (kinetic) came out at 41.5 µg/mL (≈ 149 µM). Consider `Cc1cc(NC(=O)C(C)SCC(=O)O)no1` (centres undefined), for which the kinetic solubility is above 36.6 µg/mL. The result for `O=C(Nc1ccc(Cl)cc1)C1CCN(C(=O)c2cccs2)CC1` reads 12.9 µg/mL (≈ 37 µM). In turn, `O=C(Nc1ccc2c(c1)C(=O)OC2)c1ccccc1Cl` returned a solubility (kinetic) of 41 µg/mL (≈ 143 µM). This solubility kinetic lies about 3.2-fold higher than the previous one. For the compound `O=C(NC1CCCCC1)C1CC(=O)N(c2cccc([N+](=O)[O-])c2)C1` (centres undefined), the kinetic solubility turned out to be 7.8 µg/mL (≈ 23.5 µM). On to `CC(=O)Nc1ccc(N2CCN(Cc3ccccc3)CC2)cc1`, for which the kinetic solubility turned out to be 43.5 µg/mL (≈ 141 µM). As for `O=C(NCc1cccnc1)Nc1ccc([N+](=O)[O-])cc1`, the solubility (kinetic) was above 40.8 µg/mL.

Consider `COc1ccc(C(=O)Nc2nc3ccccc3s2)c(OC)c1`, for which the solubility (kinetic) amounted to 1 µg/mL (≈ 3.18 µM). `CC(C)c1nc2oc3c(NCCO)ncnc3c2c2c1COC(C)(C)C2` yielded a kinetic solubility of 48.9 µg/mL (≈ 137 µM). The result for `CCOC(=O)c1ccc(NC(=S)Nc2cc(C)cc(C)n2)cc1` reads below 0.2 µg/mL. For the compound `Cc1cc(Br)c(NC(=O)COC(=O)c2ccc[n+]([O-])c2)c(Br)c1`, the kinetic solubility was above 66.6 µg/mL. `Cc1ccc(Cl)c(OCC(=O)OCC(=O)c2ccc[nH]2)c1` had a solubility (kinetic) of 8.7 µg/mL (≈ 28.3 µM). Consider `Cc1ccc2c(c1)cc(C(=O)N1CCN(c3ccccn3)CC1)n2C`, for which the solubility (kinetic) came out at 2.1 µg/mL (≈ 6.28 µM). Compound `N#Cc1ccc(OC(=O)Cc2ccsc2)cc1` gave a kinetic solubility of 35.5 µg/mL (≈ 146 µM). `O=C(CNC(=O)c1ccc(Cl)cc1)NCc1ccccn1` yielded a kinetic solubility above 45.6 µg/mL. The result for `CC1(C)C(=S)N(Cc2ccccc2)c2ccccc21` reads below 0.6 µg/mL; that for `CC1(C)Cc2cccc(C(=O)NCc3ccco3)c2O1`, 32.9 µg/mL (≈ 121 µM). Compound `O=C(NC1CCCCC1)c1cccc(OCc2ccccc2)c1` yielded a solubility (kinetic) of 0.8 µg/mL (≈ 2.59 µM). Compared with the last compound, the solubility kinetic is about 41-fold lower. Regarding `CCC1CCC/C1=N\NC(=O)c1ccc(Cl)cc1` (centres undefined), the solubility (kinetic) is above 39.7 µg/mL. `COc1ccc(C2C(C#N)=C(N)Oc3cc(O)ccc32)cc1Cl` (centres undefined) displayed a solubility (kinetic) of 43.5 µg/mL (≈ 132 µM). With `O=C(Nc1cccc(O)c1)C1CC(c2cccc(Br)c2)=NO1` (centres undefined), the kinetic solubility was found to be 28 µg/mL (≈ 77.5 µM). Against the preceding compound, the solubility kinetic is about 1.6-fold lower. `CCOC(=O)c1ccc(NC(=O)c2cccnc2)cc1` yielded a kinetic solubility above 40.5 µg/mL. Consider `Cc1ccccc1NC(=S)NCc1ccc(F)cc1`, for which the solubility (kinetic) was above 41.2 µg/mL.

In the case of `COC(=O)C(O)(c1ccc(N(C)C)cc1)C(F)(F)F` (centres undefined), the kinetic solubility came to 38 µg/mL (≈ 137 µM). `O=C(O)CC1(CC(=O)Nc2ccc(C(F)(F)F)cc2)CCCC1`: the kinetic solubility was above 49.4 µg/mL.

With `Cc1cccc(-c2noc(CCC(=O)NC3CCCCC3)n2)c1`, the kinetic solubility stood at 3.4 µg/mL (≈ 10.8 µM). The compound `O=c1[nH]cnc2sc3c(c12)CN(Cc1ccccc1)CC3` came in with a solubility (kinetic) of 21.3 µg/mL (≈ 71.6 µM). For the compound `COc1ccc(CN2C(=O)CSCC2=O)cc1OC`, the kinetic solubility is above 42.2 µg/mL. To `CCOC(=O)C(=O)NCC(c1ccco1)S(=O)(=O)c1cccs1` (centres undefined) belongs above 53.6 µg/mL; to `O=C(Nc1ccccc1)Nc1sccc1-c1nc2ccccc2s1`, 3.8 µg/mL (≈ 10.8 µM). For the compound `O=C(CCNC(=O)c1ccccc1)NCCCc1ccccc1`, the kinetic solubility was above 46.6 µg/mL. As to `CC1CC2(CCCC2)N(C(=O)N(C)C)c2ccc(F)cc21` (centres undefined), the kinetic solubility was 10.5 µg/mL (≈ 36.2 µM). The result for `CC(=O)c1ccc2noc(-c3ccccc3)c2c1` reads 31.8 µg/mL (≈ 134 µM); that for `CCOc1ccc(CNc2nc3ccccc3n2C)cc1`, above 42.2 µg/mL; that for `Cn1c(=O)[nH]c(=O)c2cc(C(=O)c3cc(F)ccc3O)cnc21`, 8 µg/mL (≈ 25.4 µM). `Cn1c(/C=C/c2ccc(Cl)cc2)c([N+](=O)[O-])c(=O)n(C)c1=O`: the kinetic solubility came out at 5 µg/mL (≈ 15.5 µM). Against the preceding compound, the solubility kinetic is about 1.6-fold lower. With `CCOC(=O)COn1c(=O)c(-c2ccc(OC)cc2)[n+]([O-])c2ccccc21`, the kinetic solubility came to 42 µg/mL (≈ 113 µM).

Take `COc1ccccc1C(=O)Nc1ccc2c(C)cc(=O)oc2c1`: the kinetic solubility turned out to be 1.3 µg/mL (≈ 4.2 µM). To `CCN(CC)S(=O)(=O)c1cccc(NC(=O)COC(=O)c2cncc(Br)c2)c1` belongs 40.3 µg/mL (≈ 85.7 µM); to `Cc1ccc(OCc2ccc(C(=O)NN)o2)c([N+](=O)[O-])c1`, above 43.7 µg/mL. In turn, `COc1ccc(OCCCC(=O)Nc2nc(C)c(C(C)=O)s2)cc1` showed a solubility (kinetic) of 1.3 µg/mL (≈ 3.73 µM). In turn, `O=C(COc1cccnc1[N+](=O)[O-])NCc1ccc(F)cc1` showed a solubility (kinetic) above 45.8 µg/mL.

The compound `COc1ccc(Cc2c(O)nc(SCC(=O)N3CCOCC3)[nH]c2=O)cc1` showed a kinetic solubility above 58.7 µg/mL. Take `O=C(CNC(=O)c1ccc(Cl)cc1Cl)NCC1CCCO1` (centres undefined): the kinetic solubility is above 49.7 µg/mL. To `O=Cc1c(NCc2ccccc2F)c2ccccc2[nH]c1=O` belongs 4.2 µg/mL (≈ 14.2 µM); to `CCc1ccccc1NC(=O)NC1CCCCCCC1`, 0.5 µg/mL (≈ 1.82 µM). Compound `Cc1cc(SCc2ccc(F)cc2)nc(=O)[nH]1` gave a solubility (kinetic) of 22.1 µg/mL (≈ 88.3 µM). Against the preceding compound, the solubility kinetic is about 44-fold higher. `Brc1ccc(COc2cccc3cccnc23)cc1` came in with a solubility (kinetic) of 2.3 µg/mL (≈ 7.32 µM). This solubility kinetic is about 9.6-fold lower than that of the compound before. As to `Cl.O=C(c1cccc(S(=O)(=O)N2CCc3ccccc32)c1)N1CCN(CCO)CC1`, the solubility (kinetic) is above 67.8 µg/mL. As to `CCN1CCN(c2ccc(S(=O)(=O)N3CCOCC3)cc2N)CC1`, the solubility (kinetic) is above 53.2 µg/mL. For `C[C@H](NC(=O)N1CCC(Cc2ccccc2)CC1)C(=O)O`, the kinetic solubility is above 43.6 µg/mL.

For the compound `Nc1cc(N)nc(SCC(=O)NNC(=O)Cc2ccccc2)n1`, the kinetic solubility was above 49.9 µg/mL.

`O=C(NC(=S)N1CCCC(O)C1)c1ccco1` (centres undefined) had a kinetic solubility above 38.1 µg/mL. In turn, `Cc1ccc(S(=O)(=O)NCc2ccccc2)s1` returned a kinetic solubility above 40.1 µg/mL. Compound `COc1ccccc1CCn1c(N)cc(=O)[nH]c1=O` gave a kinetic solubility above 39.2 µg/mL. The compound `Cc1cnc(NS(=O)(=O)c2ccccc2)c(Br)c1` yielded a solubility (kinetic) above 49.1 µg/mL. In turn, `Cc1ccc(OCC(=O)N2CCc3ccccc3C2)c([N+](=O)[O-])n1` returned a solubility (kinetic) above 49.1 µg/mL. `COc1ccccc1/C=C/C(=O)OCC(=O)NC(=O)NC1CCCC1` registered a solubility (kinetic) of 13.8 µg/mL (≈ 39.8 µM). `O=C(NC(=O)c1ccccc1F)OCc1ccc(Cl)cc1Cl`: the kinetic solubility is below 0.7 µg/mL.

`O=C1NC(C(=O)O)=CC(c2ccc([N+](=O)[O-])cc2)N1` (centres undefined) showed a solubility (kinetic) above 39.5 µg/mL.

The compound `CCOc1ccc(Cl)cc1S(=O)(=O)N1CCC(C(=O)NCc2ccco2)CC1` yielded a solubility (kinetic) of 3.6 µg/mL (≈ 8.43 µM).

`CC1CCC(NC(=O)C2CC(O)CN2S(=O)(=O)c2ccc([N+](=O)[O-])cc2)CC1` (centres undefined) gave a solubility (kinetic) above 61.7 µg/mL. `Cc1nc2ccccc2c(=O)n1-c1ccncc1` displayed a solubility (kinetic) of 29.1 µg/mL (≈ 123 µM). Consider `Cc1csc(NC(=O)c2ccc(S(C)(=O)=O)cc2)n1`, for which the kinetic solubility is above 44.5 µg/mL. The result for `NC(=O)CSc1nccn1Cc1ccccc1` reads above 37.1 µg/mL; that for `Cc1ccc(C(=O)NCCCNC(=O)c2ccco2)cc1`, above 42.9 µg/mL.
